In patent US6566361B2, “Azapirone pain treatment” (priority 1999, dated 2003):

Columns and labels:
[1] = tested on: albino rats; assay: Rat hindpaw withdrawal (thermal escape) test for analgesia (acute pain); assay type: in vivo; conditions: for Hindpaw thermal escape latency from 30 min to 120 min: ipsapirone 20 mg/kg ip, acetaminophen 300 mg/kg ip, or both coadministered, vs vehicle; for Thermal escape latencies vs vehicle, single administration: tandospirone 5 mg/kg ip alone, acetaminophen 300 mg/kg ip alone
Text: To assess the thermally evoked paw-withdrawal response, a commercially available device was used. Specifics of device construction and operation have been published previously (Dirig D M, Salami A, Rathbun M L, Ozaki G T, Yaksh T L. Characterization of variables defining hindpaw withdrawal latency evoked by radiant thermal stimuli. J Neurosci Methods. Oct. 3, 1997; 76(2):183-91). This device is comprised of a glass surface on which the rats were placed individually in Plexiglas cubicles (9×22×25 cm). The surface is maintained at 30° C. by a feedback-controlled, under-glass, forced-air heating system. The thermal nociceptive stimulus originates from a projection bulb below the glass that can be manipulated in a two-dimensional axis on ball bearing slides. This apparatus allows the stimulus to be delivered separately to each hind paw with the aid of an angled mirror mounted on the stimulus source. A timer is actuated with the light source, and escape latency is defined as the time between stimulus onset and the display of a brisk paw withdrawal (detected by photodiode motion sensors that stops the timer and terminates the stimulus; cut-off time for a non-response is 20 sec which triggers automatic termination of the stimulus). In the present study, animals are placed in test boxes for 30 min acclimation and then baseline escape latency is assessed separately for each hindpaw (left and right) at −15 min. All drugs are delivered at 0 min by the intraperitoneal (i.p.) route in a volume of 3 ml/kg. […] For acetaminophen (Sigma, A7085) the vehicle was 40% polyethylene glycol 400 (PEG-400), 10% EtOH, 15% Tween 80, and 35% deionized H2O (PETW). Acetaminophen was disolved sequentially in two parts: 1) first into a solution of 80% PEG 400+20% EtOH, and 2) then slowly added to it was an equal volume of 30% Tween 80+70% deionized H2O (sonicated as needed). Other azapirone vehicles were Gepirone (saline), ipsapirone (deionized H2O), and tandospirone (DMA+PETW), DMA=5% dimethylacetamide. Each animal received two injections at time zero. Specifically, animals were tested in one of the following 10 treatment conditions (abbreviations used in figures are shown under ‘Key” below):
Following drug administration, thermal escape latencies are measured at regular intervals (e.g., 15, 30, 60, 90 and 120 min, mean of both paws is used for statistical analysis).

[2] = tested on: albino rats; assay: Preclinical model of chronic pain (rat formalin test, phase II flinches); assay type: in vivo; conditions: single ip delivery: morphine 4 mg/kg, buspirone 3 mg/kg, acetaminophen 300 mg/kg
Protocol: To assess responses to a chronic stimulus (subcutaneous formalin injection), animals are first placed in clear observation boxes for a 30 min acclimation period prior to testing. Animals are subsequently removed and the dorsum of one hindpaw is injected s.c. with 50 microliters of 2.5% formalin. […] The total number of flinches is computer scored during the chronic phase (10-90 min after formalin) using a commercially available device (George Ozaki, Automated Nocicpetion Analyzer, Department of Anesthesiology, University of California, San Diego; La Jolla, Calif.) which automates the manual procedure described previously by Wheeler-Aceto et al. (Pain 40:229-238, 1990). All drugs are delivered at 30 min prior to formalin injection by the intraperitoneal (i.p.) route in a volume of 2 ml/kg. […] For acetaminophen (Sigma, A7085) the vehicle was 40% polyethylene glycol 400 (PEG-400), 10% EtOH, 15% Tween 80, and 35% deionized H2O (PETW). Acetaminophen was disolved sequentially in two parts: 1) first into a solution of 80% PEG 400+20% EtOH, and 2) then slowly added to it was an equal volume of 30% Tween 80+70% deionized H2O (sonicated as needed). Each animal received two injections at time zero. Specifically, animals were tested in one of the following 5 treatment conditions (abbreviations used in figures are shown under ‘Key” below): […]

[3] = tested on: rats; assay: Preclinical model of neuropathic pain (Chung spinal nerve L5/L6 ligation, von Frey test); assay type: in vivo, rat; conditions: buspirone 3 mg/kg ip; acetaminophen 200 mg/kg ip; or both coadministered
Text: J Neurosci Methods. […] For acetaminophen (Sigma, A7085) the vehicle was 40% polyethylene glycol 400 (PEG-400), 10% EtOH, 15% Tween 80, and 35% deionized H2O (PETW). Acetaminophen was disolved sequentially in two parts: 1) first into a solution of 80% PEG 400+20% EtOH, and 2) then slowly added to it was an equal volume of 30% Tween 80+70% deionized H2O (sonicated as needed). Each animal received two injections at time zero.

[4] = Rat plasma concentrations of buspirone and APAP over time; assay type: in vivo
Text: It also has agonistic action at presynaptic D2 dopaminergic receptors. Acetaminophen is believed to act by elevating the pain threshold in patients.

[5] = tested on: mouse; assay: Mouse hot plate test (Eddy et al.); assay type: in vivo; conditions: buspirone to acetaminophen weight ratios of 1:3, 1:10, and 1:30
[6] = in vivo; cited from earlier work
[7] = acute high doses; cited from earlier work
[8] = in vivo; cited from earlier work; remark: listed apart in the source

CC(=O)Nc1ccc(O)cc1 [acetaminophen]
Hindpaw thermal escape response, Area Under the Curve (AUC) from thermal escape latencies (sec) over 120 min post injection ([1]; acetaminophen 300 mg/kg ip, compared to vehicle): elevated significantly above vehicle | Hindpaw thermal escape latency from 30 min to 120 min [1]: a comparably high level of analgesia was not consistently attached throughout this same time period | Thermal escape latencies vs vehicle, single administration [1]: did not differ from vehicle until 90 min after injection | Formalin-induced flinches relative to vehicle [2]: significantly suppressed | von Frey thresholds, injured side (neuropathic pain responses) [3]: partial reversal toward normal at 30-120 min | Plasma concentrations over time, alone vs in combination [4]: do not differ significantly whether given alone or in combination

CN1CC[C@]23c4c5ccc(O)c4O[C@H]2[C@@H](O)C=C[C@H]3[C@H]1C5 [morphine]
Formalin-induced flinches relative to vehicle [2]: significantly suppressed

O=C1c2ccccc2S(=O)(=O)N1CCCCN1CCN(c2ncccn2)CC1 [ipsapirone]
Hindpaw thermal escape latency from 30 min to 120 min [1]: a comparably high level of analgesia was not consistently attached throughout this same time period

O=C1[C@@H]2[C@H]3CC[C@H](C3)[C@@H]2C(=O)N1CCCCN1CCN(c2ncccn2)CC1 [tandospirone]
Thermal escape latencies vs vehicle, single administration [1]: did not differ from vehicle until 90 min after injection

8-[4-[4-(2-pyrimidinyl)1-piperazinyl]butyl-8-azaspiro(4,5)-decane-7,9-dione [buspirone]
Formalin-induced flinches relative to vehicle [2]: significantly suppressed | von Frey thresholds, injured side (neuropathic pain responses) [3]: not significantly different from vehicle | Potentiation of acetaminophen in hot plate test [5]: demonstrated potentiation of acetaminophen | Type of analgesia produced [6]: non-opioid type of analgesia | Relief of neuropathic pain [7]: did not relieve neuropathic pain | Effect on xylazine-induced antinociception [8]: attenuate xylazine-induced antinociception
